In US4264577A, “Contraceptive methods and compositions” (Eli Lilly and Company, priority 1980, dated 1981):
“And” between values parts separate entries of the source, which are not always exact repeats. Equal entries are not always repeated.

Columns and labels:
[1] = Drug release rate in vitro from dimethylpolysiloxane rubber rod, Method B (water, methylene blue method); assay type: physicochemical; conditions: rod 341.4 mg, 10% W/W
Procedure: A dimethylpolysiloxane rubber rod (3 cm. long, 3 mm. diameter) weighing 341.4 mg. and containing 10% (W/W) of dispersed sodium n-tetradecyl sulfate (prepared by Example 3, Method B, lot no. 225-1) is placed in a container and is covered with 10 ml. of water. The rod and the water are incubated together at 37° C. for a seven-day period, after which the water is removed. The sodium n-tetradecyl sulfate in the water is determined by the methylene blue method as described by K. Hiyashi, Analytical Biochemistry, 67, 503 (1975).
The above procedure may be repeated at 7-day intervals by adding fresh water to the rod after each removal of water for assay. Table 5, below, gives the results of a test performed as above-described for 140 days.

[2] = system: Dutch belted virgin rabbits; assay: Antifertility effect by intrauterine administration (medicated rubber rod in uterine horn); assay type: in vivo, rabbit; conditions: 40-mg rod, 10% W/W, in right uterine horn; 8 uterine horns; 14 days after breeding
Procedure: Dutch belted virgin rabbits, each weighing 3-4 pounds, are randomly selected and anesthetized with sodium pentobarbital ([…].) administered by IV drip. The uterus of each animal is exposed and a 40-mg. sample in the shape of a rod (3 mm. in diameter) of dimethylpolysiloxane rubber (as prepared in Example 3, Method A) containing 10% W/W of sodium tetradecyl sulfate is sutured into the right uterine horn at a random location in between the cervix and the uterotubal junction. The left horn is left untreated to serve as control. The rubber rod is placed into the uterine horn by passing a curved needle through it and through the uterine wall pulling the rod into the uterine lumen. The entry is closed by suturing. Animals (blank) are similarly treated using unmedicated dimethylpolysiloxane rubber to serve as a second group of controls. The animals are given 300,000 units of Duracillin®) per day (in four doses) and are allowed to recover for 14 days. Each animal is bred to a male of proven fertility and is immediately given a dose (IV) of appropoximately 100 units of human chorionic gonadotropin (HCG) to facilitate ovulation. Fourteen days after breeding, the animal are sacrificed by cervical dislocation and the uterine horns are examined for implanted embryos. The number of embryos per uterine horn are recorded. […]

[3] = system: virgin dutch belted female rabbit; assay: Antifertility effect by intravaginal administration (K-Y jelly mixture); assay type: in vivo; conditions: 1 ml of K-Y jelly mixed with equal volume of 10 mg./ml. solution, 4 animals
Procedure: Equal volumes of K-Y-jelly® and either Ca^++ free Ringer's solution or a 10 mg./ml. solution of the compound to be tested in Ca^++ free Ringer's solution are well mixed. One milliliter of this is placed into the vagina of a virgin dutch belted female rabbit using a syringe. The female is then immediately bred to a fertile buck. The female is injected I.V. with […] of human chorionic gonadotrophin to assure a good ovulation rate.
After approximately 14 days the females are sacrificed by cervical dislocation and the genital system examined for the number of embryos.

female rabbits = assay: Drug release rate and efficacy in vivo, intravaginal medicated rubber rings; parameters: species or system rabbit; conditions: vaginal ring 500 mg, 20% W/W; for Amount of sodium n-tetradecyl sulfate released. (μg. per day): per animal; for No. of Embryos (per animal): sulfate
Procedure: Dimethylpolysiloxane rods (4 mm. diameter) weighing 500 mg. and containing 20% (W/W) sodium n-tetradecyl sulfate (prepared by Example 3, Method B, lot no. 225-3) are formed into a circle of approximately 20 mm. diameter. The rings are inserted into the vagina of female rabbits and are held in place by sutures. The rabbits are bred either 7 or 32 days after insertion of the rings. Eleven days after breeding, the animals are sacrificed and the genital system examined for pregnancy. The rings are removed, washed, and extracted with methanol (24 hour continuous,) to remove the remaining sodium n-tetradecyl sulfate. The amount of active compound is determined by the methylene blue method, as described in Part A, above. The amount of sodium n-tetradecyl sulfate remaining in the circular rod is subtracted from the original amount present, and the difference is assumed to be the amount released over the time period.

sperm = assay: Standard in vitro spermicidal tests (kill or immobilize sperm); assay type: cell-based; conditions: standard in vitro tests: ability to kill or immobilize sperm
Source text: The alkyl or alkenyl sulfate salts have surface-active properties, and the sodium salts of dodecyl sulfate (lauryl sulfate), tetradecyl sulfate (myristyl sulfate), and hexadecyl sulfate (cetyl sulfate) are particularly useful surfactants for many applications. Sodium lauryl sulfate, for example, is widely used in topical creams, lotions and other preparations used for pharmaceutical or cosmetic purposes. A mixture of sodium lauryl sulfate and sodium myristyl sulfate is used commercially as a wetting agent, primarily in the paper industry. It is well known that surfactants may denature proteins when present in aqueous solutions in sufficient concentrations because the surface activity may affect peptide conformation.

CCCCCCCCCCCCCCOS(=O)(=O)[O-].[Na+] [n-tetradecyl, sodium n-tetradecyl sulfate]
Amount of sodium n-tetradecyl sulfate released Per day Calc. ([1]; Day 7): 1.3 µg
Amount of sodium n-tetradecyl sulfate released Per 7 days ([1]; Day 7, 10 ml water 37° C.): 9 µg
Amount of sodium n-tetradecyl sulfate released Per 7 days ([1]; Day 14): 1.9 µg
Amount of sodium n-tetradecyl sulfate released Per day Calc. ([1]; Day 14): 0.3 µg
Amount of sodium n-tetradecyl sulfate released Per 7 days ([1]; Day 21): 34.2 µg
Amount of sodium n-tetradecyl sulfate released Per day Calc. ([1]; Day 21): 4.9 µg
Amount of sodium n-tetradecyl sulfate released Per 7 days ([1]; Day 28): 160 µg
Amount of sodium n-tetradecyl sulfate released Per day Calc. ([1]; Day 28): 22.8 µg
Amount of sodium n-tetradecyl sulfate released Per 7 days ([1]; Day 35): 290 µg
Amount of sodium n-tetradecyl sulfate released Per day Calc. ([1]; Day 35): 41.4 µg
Amount of sodium n-tetradecyl sulfate released Per 7 days ([1]; Day 42): 144 µg
Amount of sodium n-tetradecyl sulfate released Per day Calc. ([1]; Day 42): 20.6 µg
Amount of sodium n-tetradecyl sulfate released Per 7 days ([1]; Day 49): 947 µg
Amount of sodium n-tetradecyl sulfate released Per day Calc. ([1]; Day 49): 135.3 µg
Amount of sodium n-tetradecyl sulfate released Per 7 days ([1]; Day 56): 133 µg
Amount of sodium n-tetradecyl sulfate released Per day Calc. ([1]; Day 56): 19 µg
Amount of sodium n-tetradecyl sulfate released Per 7 days ([1]; Day 63): 111 µg
Amount of sodium n-tetradecyl sulfate released Per day Calc. ([1]; Day 63): 16 µg
Amount of sodium n-tetradecyl sulfate released Per 7 days ([1]; Day 70): 333 µg
Amount of sodium n-tetradecyl sulfate released Per day Calc. ([1]; Day 70): 47.5 µg
Amount of sodium n-tetradecyl sulfate released Per 7 days ([1]; Day 77): 111 µg
Amount of sodium n-tetradecyl sulfate released Per day Calc. ([1]; Day 77): 16.0 µg
Amount of sodium n-tetradecyl sulfate released Per 7 days ([1]; Day 84): 0 µg
Amount of sodium n-tetradecyl sulfate released Per day Calc. ([1]; Day 84): 0 µg
Amount of sodium n-tetradecyl sulfate released Per 7 days ([1]; Day 91): 105 µg
Amount of sodium n-tetradecyl sulfate released Per day Calc. ([1]; Day 91): 15 µg
Amount of sodium n-tetradecyl sulfate released Per 7 days ([1]; Day 98): 644 µg
Amount of sodium n-tetradecyl sulfate released Per day Calc. ([1]; Day 98): 92 µg
Amount of sodium n-tetradecyl sulfate released Per 7 days ([1]; Day 105): 1477 µg
Amount of sodium n-tetradecyl sulfate released Per day Calc. ([1]; Day 105): 211 µg
Amount of sodium n-tetradecyl sulfate released Per 7 days ([1]; Day 112): 430 µg
Amount of sodium n-tetradecyl sulfate released Per day Calc. ([1]; Day 112): 61.4 µg
Amount of sodium n-tetradecyl sulfate released Per 7 days ([1]; Day 119): 600 µg
Amount of sodium n-tetradecyl sulfate released Per day Calc. ([1]; Day 119): 85.7 µg
Amount of sodium n-tetradecyl sulfate released Per 7 days ([1]; Day 126): 1500 µg
Amount of sodium n-tetradecyl sulfate released Per day Calc. ([1]; Day 126): 214.3 µg
Amount of sodium n-tetradecyl sulfate released Per 7 days ([1]; Day 133): 2600 µg
Amount of sodium n-tetradecyl sulfate released Per day Calc. ([1]; Day 133): 371 µg
Amount of sodium n-tetradecyl sulfate released Per 7 days ([1]; Day 140): 4000 µg
Amount of sodium n-tetradecyl sulfate released Per day Calc. ([1]; Day 140): 571 µg
Percent of compound released after 140 days ([1]; initial amount 34.14 mg.): 37%
Total amount of compound released after 140 days ([1]; initial amount 34.14 mg.): 12.63 mg
Embryos Horn (x ± S.D.) [2]: 0
Total No. of embryos [2]: 0
Avg. No. of Embryos per animal [3]: 0
No. of embryos [3]: 0
Amount of sodium n-tetradecyl sulfate released. (μg. per day) (female rabbits; after seven days): 760 μg. per day and 470 μg. per day and 961 μg. per day and 277 μg. per day and 894 μg. per day
Amount of sodium n-tetradecyl sulfate released. (μg. per day) (female rabbits; after thirty-two days): 644 μg. per day and 522 μg. per day and 288 μg. per day
No. of Embryos (per animal) (female rabbits; bred after seven days): 0 and 8 and 5
No. of Embryos (per animal) (female rabbits; bred after thirty-two days): 0 and 3
classical spermicidal activity (sperm): does not show classical spermicidal activity
